Measured values: patent US20140284001A1, “SYSTEMS AND METHODS FOR SPRAY DRYING IN MICROFLUIDIC AND OTHER SYSTEMS” (President and Fellows Of Harvard College, priority 2012, published 2014)

Assay: size of spray dried nanoparticles by scanning electron microscopy (SEM)
Format: physicochemical
Settings: dissolved in ethanol, spray dried with microfluidic nebulator, flow-focusing nebulization unit, four air inlets, 2.8 bar, 1 ml/h, collected 10 cm from outlet

Structure (SMILES): Clc1ccccc1C(c1ccccc1)(c1ccccc1)n1ccnc1 [clotrimazole]
- average nanoparticle diameters: 24+/−8 nm
